# Test results reported in patent US20240391940A1, “FUSED RING-CONTAINING COMPOUND, APPLICATION THEREOF, AND COMPOSITION CONTAINING SAME” (GenEros Biopharma Ltd., priority 2020, published 2024).
# What was measured:
# [1] = test system: STAT5 Y694 phosphorylation; assay: HTRF experiment: STAT5 Y694 phosphorylation in Hela cells; format: cell-based, Human; conditions: for Inhibition rate @10 μM: 10 μM compound, 2 h pretreatment, interferon stimulation 30 min
# Protocol: A multifunctional microplate reader (TECAN; […] F PLEX); 96-well cell culture plates (Bioyong), HTRF 384-well low volume plates (Cisbio; Cat #66PL384025); Human interferon 0 (IFN-0) (GenScript; Cat #P01574), STAT5 phospho-Y694 kits (Cisbio; Cat #64AT5PEG).
# Hela cells (American Type Culture Collection (ATCC), CCL-2) were cultured in a 96-well plate with DMEM containing 5% fetal bovine serum at a density of 3×10^4 cells/well. The cells were incubated overnight in a 37° C., 5% carbon dioxide humidified incubator. The next day, the original DMEM in the 96-well plate was blotted, and equal volumes of medium containing different concentrations of compounds (stock solutions of compounds prepared with dimethyl sulfoxide were diluted to desired concentrations in medium) were added for 2 h of pretreatment. The plate was left to stand in a 37° C. incubator. Human interferon 0 was then added to a final concentration of 10 nM for stimulation. The plate was gently shaken so the contents were well mixed, and the plate was then left to stand in a 37° C. incubator for 30 min.
# The medium was removed, and the plate was washed once with an appropriate volume of PBS and then blotted dry. Then 1×lysis buffer was added at 40 μL/well, and the plate was left to stand at room temperature for 30 min (preparation of 1 mL of 1× lysis buffer: mixing well 740 μL of ddH2O with 250 μL of 4× lysis buffer and […]). After 30 min, the cells were repeatedly pipetted until the lysis buffer was not viscous (bubbles were avoided) so that sufficient lysis was achieved.
# In an HTRF 384-well low volume plate, 4 μL of an antibody premix (containing two antibodies: Cryptate and d2: the two antibodies were each 20-fold diluted with detection buffer and were then mixed in equal volume to form the antibody premix) and 16 μL of the cell lysate were added to each well. The plate was sealed with a sealing membrane and then incubated overnight at room temperature in a dark place.
# After the overnight incubation, signals at 665 nm and 620 nm were detected separately on a multifunctional microplate reader. The calculation formula for the STAT5 Y694 phosphorylation assay is: Ratio=[(signal 665 nm)/(signal 620 nm)]×10^4. A dimethyl sulfoxide-only treatment group was set as a negative control (RatioNegative), and an interferon 0 stimulation group without compound addition was set as a positive control (RatioPositive). The inhibition rates of different samples against STAT5 Y694 phosphorylation were normalized: inhibition rate=[1−(RatioExperiment−RatioNegative)/(RatioPositive−RatioNegative)]×100.
# female BALB/c mice = assay: Toxicity, multiple administrations for 14 days in mice; format: in vivo; conditions: female BALB/c mice
# Protocol: • Part I: Single administration. A total of 6 mice were used. They were randomly divided into 2 groups: the vehicle control and GEN1-284s (1000 mg/kg), dosed once by oral gavage and observed for 6 days, and changes in body weight and activities were recorded. • Part II: Multiple administrations. This experiment used a total of 6 mice. They were divided into two groups of 3: a GEN1-284s-1000 mg/kg group and a GEN1-284s-300 mg/kg group, and were intragastrically given GEN1-284s for 14 consecutive days at 200 μL each. The state and survival of the mice were observed every day, and their body weights were recorded. Two mice died 2 h after GEN1-284s-1000 mg/kg administration. The dose was changed to 600 mg/kg, and the experiment was continued.
# This experiment used a total of 6 mice. They were divided into two groups of 3: a GEN1-284s-1000 mg/kg group and a GEN1-284s-300 mg/kg group, and were intragastrically given GEN1-284s for 14 consecutive days at 200 μL each. The state and survival of the mice were observed every day, and their body weights were recorded. Two mice died 2 h after GEN1-284s-1000 mg/kg administration. The dose was changed to 600 mg/kg, and the experiment was continued.
# Each mouse was intragastrically administered GEN1-284s for 14 consecutive days in a volume of 200 μL/20 g. The state and survival of the mice were observed every day, and their body weights were recorded. Two mice died 2 h after GEN1-284s-1000 mg/kg administration. The dose was changed to 600 mg/kg, and the experiment was continued.
# Changes in body weight and survival of the mice were observed during 6 days after the single administration, and changes in body weight and the survival of the mice were observed during 14 consecutive days of high-dose GEN1-284s administration.
# [2] = test system: LPS-induced production of TNF-α; assay: LPS-induced TNF-α production in mice (plasma ELISA); format: in vivo; conditions: Balb/c mice; GEN1-284s 15 mpk intragastric, LPS 1 mpk i.p. 0.5 h after administration, plasma 2 h after LPS
# Protocol: Materials and method: A total of 18 mice were used in this experiment. The mice were divided into a MOCK group (n=6), a dexamethasone group (n=6), and a GEN1-284s 15 mpk group (n=6). LPS (1 mpk) was intraperitoneally injected 0.5 h after administration. The mice were sacrificed 2 h after the LPS injection, and blood samples were taken. The blood samples were left in EDTA-K2 anticoagulant tubes at room temperature for 20 min and centrifuged at 8000 rpm for 10 min. The plasma was separated and cryopreserved at −80° C. before analysis.
# LPS (1 mpk) was intraperitoneally injected 0.5 h after administration. The mice were sacrificed 2 h after the LPS injection, and blood samples were taken. The blood samples were left in EDTA-K2 anticoagulant tubes at room temperature for 20 min and centrifuged at 8000 rpm for 10 min. The plasma was separated and cryopreserved at −80° C. before analysis.
# The mice were tested for TNF-α level with ELISA kits, and the inhibitory effect of GEN1-284s on the TNF-α level was evaluated.
# According to the instructions for use, a standard curve formula (y=0.0038x+0.1206, R^2=0.9956) was obtained and can be used to calculate detection values.
# [3] = 300 mg/kg intragastric for 14 consecutive days
SMILES,Inhibition rate @10 μM [1],IC50 [1],Change in body weight (female BALB/c mice; [3]),Survival (female BALB/c mice; [3]),"Number of mice that died (female BALB/c mice; 600 mg/kg group, Day 4)","Number of mice that died 2 h after administration (female BALB/c mice; 1000 mg/kg intragastric, day 1, group of 3)",Time within which all mice died (female BALB/c mice; continuous administration of 600 mg/kg),Inhibition rate against LPS-induced TNF-α [2]
"O=C(Cc1ccc2ncccc2c1)N1CCC(n2c(=O)[nH]c3cccc(C(F)(F)F)c32)CC1 [GEN1-117, 1-(1-(2-(Quinolin-6-yl)acetyl)piperidin-4-yl)-7-(trifluoromethyl)-1H-benzo[d]imidazol-2(3H)-one]",89.31%,,,,,,,
"O=C(Cc1ccc2ncccc2c1)N1CCC(n2c(=O)n(COP(=O)([O-])[O-])c3cccc(C(F)(F)F)c32)CC1.[Na+].[Na+] [GEN1-284 salt, (2-Oxo-3-(1-(2-(quinolin-6-yl)acetyl)piperidin-4-yl)-4-(trifluoromethyl)-2,3-dihydro-1H-benzo[d]imidazol-1-yl)methyl disodium phosphate]",82.46%,2.6 µM,no significant change in body weight,did not affect the survival of the mice,1 mouse,2 mice,≤ 5 days,36%
